Bounds are passed on as bounds.

A word on the IC50: it is the point on the concentration scale where inhibition reaches its midpoint.

The target of assay [1] is FGFR1 (SEQ ID NO: 1, amino acids 458-765) (Homo sapiens (Human), UniProt P11362). The experiment in a line: LC/MS FGFR1 kobs assay (covalent protein modification). Format: binding. As to conditions: 500 nM FGFR1, 3 μM compound. In a few lines: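 Covalent labeling of FGFR1 kinase domain (aa 458-765) tracked over time by intact-protein LC/MS after formic acid quench. kobs derived by fitting DMSO-normalized percent unmodified FGFR1 to an exponential decay model.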
Chain of FGFR1 (SEQ ID NO: 1, amino acids 458-765) (P11362 458-765): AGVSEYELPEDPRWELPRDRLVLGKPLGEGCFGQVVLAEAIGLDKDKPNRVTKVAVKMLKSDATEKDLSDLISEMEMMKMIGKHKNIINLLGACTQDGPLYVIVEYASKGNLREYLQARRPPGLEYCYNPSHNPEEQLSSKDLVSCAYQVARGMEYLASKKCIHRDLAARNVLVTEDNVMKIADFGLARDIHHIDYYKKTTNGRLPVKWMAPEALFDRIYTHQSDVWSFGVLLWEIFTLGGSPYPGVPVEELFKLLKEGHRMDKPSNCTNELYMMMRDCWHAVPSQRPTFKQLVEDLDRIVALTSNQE

Assay [2] addresses HEK-293 cells transfected with dox-inducible human wild type FGFR1 (Homo sapiens (Human), UniProt P11362). The experiment in a line: FGFR1 pERK cell assay. Format: cell-based. As to conditions: HEK-293 dox-inducible FGFR1, 1 hour compound, 100 ng/ml FGF-acidic; maximum concentration 5 μM. In a few lines: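 In HEK-293 cells with dox-induced human wild-type FGFR1, compounds (1:3 dilutions, top 5 μM final) were applied 1 h at 37°C before 5 min stimulation with 100 ng/ml FGF-acidic. Phospho-ERK1/2 measured by MSD sandwich immunoassay; IC50 from 4-parameter fit of POC versus vehicle and control compound.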

For assay [3], the target named is recombinant human FGFR2 cytoplasmic domain (amino acids 403-822) (Homo sapiens (Human), UniProt P21802). The experiment in a line: FGFR2 enzyme activity assay (LanthaScreen TR-FRET). In kind it is biochemical. The settings on record: 15 μM ATP, 20 min incubation at 22° C., average of multiple determinations if made, read-out: FGFR2 Enz FRET IC50. The procedure, abridged:
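Substrate phosphorylation was read by TR-FRET using Eu-PY20 antibody (60 min, 22 °C) after a 20 min, 22 °C reaction. The reaction used 15 μM ATP, 100 nM fluorescent poly-GT peptide and His-tagged FGFR2 403-822 ([…]) at pH 7.5 with 2% DMSO.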

Assay [4] deals with HEK-293 cells transfected with dox-inducible human wild type FGFR3 (Homo sapiens (Human), UniProt P22607). Nature of the assay: FGFR3 pERK cell assay. Format: cell-based. The settings on record: HEK-293 dox-inducible FGFR3, 1 hour compound, 100 ng/ml FGF-acidic; maximum concentration 5 μM. In a few lines:
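Doxycycline-induced cells preincubated 1 h at 37 °C with compound (1:3 dilutions, top 5 μM final), then stimulated 5 min with 100 ng/ml FGF-acidic. Lysate phospho-ERK1/2 measured by MSD sandwich assay; IC50 at 50 POC from 4-parameter fit, normalised to no-compound and control-compound wells.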

Assay [5] has as its target dephosphorylated FGFR1 (SEQ ID NO: 1, amino acids 458 to 765) (Homo sapiens (Human), UniProt P11362). Nature of the assay: FGFR enzyme binding assay (HTRF tracer displacement), FGFR1. The settings on record: 5 nM dephosphorylated FGFR1, average of multiple determinations if made. In a few lines: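 Kinase and tracer were incubated with compound for 60 minutes at 22° C. Tracer displacement was then measured by HTRF, and results were expressed as POC with 1 μM control inhibitor defining full displacement.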
A general note: In TR-FRET formats the signal depends on donor and acceptor labels being close together.

Chain of dephosphorylated FGFR1 (SEQ ID NO: 1, amino acids 458 to 765) (P11362 458-765): as above
Chain of recombinant human FGFR2 cytoplasmic domain (amino acids 403-822) (P21802 402-821): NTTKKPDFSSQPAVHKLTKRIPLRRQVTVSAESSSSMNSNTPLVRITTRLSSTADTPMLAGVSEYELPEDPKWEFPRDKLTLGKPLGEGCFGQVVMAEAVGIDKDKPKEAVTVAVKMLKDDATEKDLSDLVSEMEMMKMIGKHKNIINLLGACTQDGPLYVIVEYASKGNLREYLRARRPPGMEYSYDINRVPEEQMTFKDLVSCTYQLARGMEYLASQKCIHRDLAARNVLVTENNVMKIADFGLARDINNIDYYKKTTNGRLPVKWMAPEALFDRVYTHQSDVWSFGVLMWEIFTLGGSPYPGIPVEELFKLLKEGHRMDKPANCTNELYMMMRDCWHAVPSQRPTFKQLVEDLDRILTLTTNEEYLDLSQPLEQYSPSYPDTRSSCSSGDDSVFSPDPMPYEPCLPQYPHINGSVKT
Chain of HEK-293 cells transfected with dox-inducible human wild type FGFR1 (P11362 22-822): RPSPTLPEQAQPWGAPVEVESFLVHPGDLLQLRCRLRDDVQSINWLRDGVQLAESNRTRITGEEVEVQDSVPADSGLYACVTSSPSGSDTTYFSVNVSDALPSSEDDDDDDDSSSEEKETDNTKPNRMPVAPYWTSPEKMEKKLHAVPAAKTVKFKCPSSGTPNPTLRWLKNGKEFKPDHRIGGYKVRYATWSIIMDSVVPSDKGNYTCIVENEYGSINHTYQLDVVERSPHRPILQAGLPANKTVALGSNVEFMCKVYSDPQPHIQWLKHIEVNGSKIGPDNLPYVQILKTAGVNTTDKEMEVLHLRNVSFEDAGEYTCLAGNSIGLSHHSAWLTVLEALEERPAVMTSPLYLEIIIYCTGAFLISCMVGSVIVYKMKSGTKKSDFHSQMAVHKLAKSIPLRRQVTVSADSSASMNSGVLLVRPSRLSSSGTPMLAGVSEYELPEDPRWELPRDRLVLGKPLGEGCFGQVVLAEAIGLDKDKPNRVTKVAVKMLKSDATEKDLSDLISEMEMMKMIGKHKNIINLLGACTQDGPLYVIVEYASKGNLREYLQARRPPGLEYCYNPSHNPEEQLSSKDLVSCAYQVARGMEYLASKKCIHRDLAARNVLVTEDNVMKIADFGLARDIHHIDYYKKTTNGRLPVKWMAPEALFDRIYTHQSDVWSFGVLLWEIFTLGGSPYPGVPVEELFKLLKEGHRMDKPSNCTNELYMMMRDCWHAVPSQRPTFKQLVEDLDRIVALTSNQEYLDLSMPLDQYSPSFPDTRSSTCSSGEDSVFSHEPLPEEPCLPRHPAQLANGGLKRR
Chain of HEK-293 cells transfected with dox-inducible human wild type FGFR3 (P22607 23-806): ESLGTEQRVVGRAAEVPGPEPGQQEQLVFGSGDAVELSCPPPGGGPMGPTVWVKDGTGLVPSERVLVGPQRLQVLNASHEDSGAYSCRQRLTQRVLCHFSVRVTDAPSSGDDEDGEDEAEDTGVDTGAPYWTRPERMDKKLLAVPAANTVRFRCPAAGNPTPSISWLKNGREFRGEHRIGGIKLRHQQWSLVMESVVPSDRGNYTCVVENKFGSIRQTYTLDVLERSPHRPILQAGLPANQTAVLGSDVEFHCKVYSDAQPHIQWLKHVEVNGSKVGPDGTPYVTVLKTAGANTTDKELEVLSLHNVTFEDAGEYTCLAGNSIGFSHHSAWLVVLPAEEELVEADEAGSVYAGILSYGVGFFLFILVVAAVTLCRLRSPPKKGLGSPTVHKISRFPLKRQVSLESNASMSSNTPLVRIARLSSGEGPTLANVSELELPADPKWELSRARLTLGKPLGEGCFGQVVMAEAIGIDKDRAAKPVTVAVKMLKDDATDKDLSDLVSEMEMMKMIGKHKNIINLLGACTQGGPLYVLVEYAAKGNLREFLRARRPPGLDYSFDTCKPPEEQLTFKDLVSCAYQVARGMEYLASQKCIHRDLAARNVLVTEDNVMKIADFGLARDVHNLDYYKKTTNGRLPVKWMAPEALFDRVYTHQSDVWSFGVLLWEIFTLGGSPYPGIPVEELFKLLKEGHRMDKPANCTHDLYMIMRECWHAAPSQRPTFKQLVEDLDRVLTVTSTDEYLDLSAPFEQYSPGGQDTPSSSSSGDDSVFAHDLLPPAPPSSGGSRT

For `CC#CC(=O)N1CC(F)(C(=O)N2CCC(n3ncc(-c4cc(OC)c5c(C#N)cnn5c4)c3C)CC2)C1` [Example 156, 6-(1-(1-(1-(but-2-ynoyl)-3-fluoroazetidine-3-carbonyl)piperidin-4-yl)-5-methyl-1H-pyrazol-4-yl)-4-methoxypyrazolo [1,5-a]pyridine-3-carbonitrile], the “FGFR1 Enz kobs” value in assay [1] came to 0.0008 min⁻¹. The IC50 in assay [2] was determined as 3110 nM; in assay [3], 84 nM; in assay [4], 91 nM; in assay [5] it was 598 nM.
As to `COc1cc(-c2cnn(C3CCN(C(=O)C4CN(C(=O)/C=C/CN5CCOCC5)C4)CC3)c2)cn2ncc(C#N)c12` [Example 184, (E)-4-methoxy-6-(1-(1-(1-(4-morpholinobut-2-enoyl)azetidine-3-carbonyl)piperidin-4-yl)-1H-pyrazol-4-yl)pyrazolo[1,5-a]pyridine-3-carbonitrile], the “FGFR1 Enz kobs” value in assay [1] stood at 0.00043 min⁻¹. Also, the IC50 was at least 5000 nM in assay [2], 4 nM in assay [3], 2830 nM in assay [4] and 52 nM in assay [5].
The matching figures for `C#CC(=O)N1CC(C(=O)N2CCC(n3cc(-c4cc(OC)c5c(C#N)cnn5c4)cn3)CC2)C1` [Example 138, 4-methoxy-6-(1-(1-(1-propioloylazetidine-3-carbonyl)piperidin-4-yl)-1H-pyrazol-4-yl)pyrazolo[1,5-a]pyridine-3-carbonitrile]: 0.01359 min⁻¹, 116 nM, 3 nM, 16 nM and 27 nM.
In the same order, the values of `C=CC(=O)N1CC(OC)(C(=O)N2CCC(n3ncc(-c4cc(OC)c5c(Cl)cnn5c4)c3C)CC2)C1` [Example 117, 1-(3-(4-(4-(3-chloro-4-methoxypyrazolo[1,5-a]pyridin-6-yl)-5-methyl-1H-pyrazol-1-yl)piperidine-1-carbonyl)-3-methoxyazetidin-1-yl)prop-2-en-1-one] are 0.00318 min⁻¹, 1200 nM, 359 nM, 36 nM and 814 nM.
The matching figures for `CCc1c(-c2cc(OC)c3c(C#N)cnn3c2)cnn1C1CCN(C(=O)C2(F)CN(C(=O)/C=C/CN(C)C)C2)CC1` [Example 162, (E)-6-(1-(1-(1-(4-(dimethylamino)but-2-enoyl)-3-fluoroazetidine-3-carbonyl)piperidin-4-yl)-5-ethyl-1H-pyrazol-4-yl)-4-methoxypyrazolo [1,5-a]pyridine-3-carbonitrile]: 0.00455 min⁻¹, 1440 nM, 69 nM, 357 nM and 1720 nM.
With `COc1cc(-c2cnc(N3CCN(C(=O)C4(F)CN(C(=O)/C=C/CN(C)C)C4)CC3)cc2C)cn2ncc(C#N)c12` [Example 169, (E)-6-(6-(4-(1-(4-(dimethylamino)but-2-enoyl)-3-fluoroazetidine-3-carbonyl)piperazin-1-yl) -4-methylpyridin-3-yl)-4-methoxypyrazolo [1,5-a]pyridine-3-carbonitrile], in assay [1], the “FGFR1 Enz kobs” value worked out at 0.00576 min⁻¹. Moreover, the IC50 was determined as 751 nM in assay [2], 80 nM in assay [3], 175 nM in assay [4] and 788 nM in assay [5].
The matching figures for `C=CC(=O)N1CC(F)(C(=O)N2CCC(n3ncc(-c4cc(OC)c5c(C#N)cnn5c4)c3CC)CC2)C1` [Example 96, 6-(1-(1-(1-acryloyl-3-fluoroazetidine-3-carbonyl)piperidin-4-yl)-5-ethyl-1H-pyrazol-4-yl)-4-methoxypyrazolo[1,5-a]pyridine-3-carbonitrile]: 0.00363 min⁻¹, 2100 nM, 155 nM, 351 nM and 1620 nM.
In the same order, the values of `COc1cc(-c2cnn(C3CCN(C(=O)C4(C)CN(C(=O)/C=C/CN(C)C)C4)CC3)c2C)cn2ncc(C#N)c12` [Example 157, (E)-6-(1-(1-(1-(4-(dimethylamino)but-2-enoyl)-3-methylazetidine-3-carbonyl)piperidin-4-yl)-5-methyl-1H-pyrazol-4-yl)-4-methoxypyrazolo [1,5-a]pyridine-3-carbonitrile] are 0.0025 min⁻¹, at least 5000 nM, 30 nM, 1150 nM and 274 nM.
The matching figures for `COc1cc(-c2cnn(C3CCN(CC4(OC)CN(C(=O)/C=C/CN(C)C)C4)CC3)c2C)cn2ncc(C#N)c12` [Example 159, (E)-6-(1-(1-((1-(4-(dimethylamino)but-2-enoyl)-3-methoxyazetidin-3-yl)methyl)piperidin-4-yl)-5-methyl-1H-pyrazol-4-yl)-4-methoxypyrazolo [1,5-a]pyridine-3-carbonitrile]: 0.00408 min⁻¹, 737 nM, 7 nM, 30 nM and 144 nM.
Turning to `COc1cc(-c2cnn(C3CCN(CC4(OC)CN(C(=O)/C=C/CN(C)C)C4)CC3)c2C)cn2ncc(Cl)c12` [Example 173, (E)-1-(3-((4-(4-(3-chloro-4-methoxypyrazolo [1,5-a]pyridin-6-yl)-5-methyl-1H-pyrazol-1-yl)piperidin-1-yl)methyl)-3-methoxyazetidin-1-yl)-4-(dimethylamino)but-2-en-1-one], the “FGFR1 Enz kobs” value in assay [1] stood at 0.00434 min⁻¹. Moreover, the IC50 in assay [2] turned out to be 1280 nM; in assay [3], 28 nM; in assay [4], 164 nM; in assay [5] it was 359 nM.
Take `C=CC(=O)N1CC(CN2CCC(n3ncc(-c4cc(OC)c5c(Cl)cnn5c4)c3C)CC2)C1(C)C` (stereo not drawn) [Example 120, 1-(3-((4-(4-(3-chloro-4-methoxypyrazolo[1,5-a]pyridin-6-yl)-5-methyl-1H-pyrazol-1-yl)piperidin-1-yl)methyl)-2,2-dimethylazetidin-1-yl)prop-2-en-1-one]: the “FGFR1 Enz kobs” value in assay [1] was determined as 0.00068 min⁻¹. Moreover, the IC50 in assay [2] was 523 nM; in assay [3], 39 nM; in assay [4], 142 nM; in assay [5], 400 nM.
The matching figures for `C=CC(=O)N1CC(CN2CCC(n3ncc(-c4cc(OC)c5c(C#N)cnn5c4)c3C)CC2)C1(C)C` (stereo not drawn) [Example 151, 6-(1-(1-((1-acryloyl-2,2-dimethylazetidin-3-yl)methyl)piperidin-4-yl)-5-methyl-1H-pyrazol-4-yl)-4-methoxypyrazolo [1,5-a]pyridine-3-carbonitrile]: 0.0008 min⁻¹, 1960 nM, 9 nM, 592 nM and 171 nM.
The matching figures for `COc1cc(-c2cnn(C3CN(C(=O)C4(F)CN(C(=O)/C=C/CN(C)C)C4)C3)c2C)cn2ncc(C#N)c12` [Example 160, (E)-6-(1-(1-(1-(4-(dimethylamino)but-2-enoyl)-3-fluoroazetidine-3-carbonyl)azetidin-3-yl)-5-methyl-1H-pyrazol-4-yl)-4-methoxypyrazolo [1,5-a]pyridine-3-carbonitrile]: 0.00659 min⁻¹, 3280 nM, 179 nM, 481 nM and 571 nM.
Take `COc1cc(-c2cnn(C3CCN(C(=O)C4(OC)CN(C(=O)/C=C/CN(C)C)C4)CC3)c2C)cn2ncc(Cl)c12` [Example 171, (E)-1-(3-(4-(4-(3-chloro-4-methoxypyrazolo [1,5-a]pyridin-6-yl)-5-methyl-1H-pyrazol-1-yl)piperidine-1-carbonyl)-3-methoxyazetidin-1-yl)-4-(dimethylamino)but-2-en-1-one]: the “FGFR1 Enz kobs” value in assay [1] stood at 0.00471 min⁻¹. Besides, the IC50 in assay [2] came out at 888 nM; in assay [3], 19 nM; in assay [4], 50 nM; in assay [5] it was 336 nM.
In the same order, the values of `C=CC(=O)N1CC(C(=O)N2CCN(c3ncc(-c4cc(OC)c5c(C#N)cnn5c4)cc3C)CC2)C1` [Example 113, 6-(6-(4-(1-acryloylazetidine-3-carbonyl)piperazin-1-yl)-5-methylpyridin-3-yl)-4-methoxypyrazolo[1,5-a]pyridine-3-carbonitrile] are 0.00304 min⁻¹, 1570 nM, 42 nM, 186 nM and 388 nM.

The record behind these values is patent US12180207B2 (ARRAY BIOPHARMA INC., priority 2018, dated 2024).
